Experimental data: the supplement of paper PMC10307832

compound: C[C@@H](C(=O)N[C@@H](C1CCCCC1)C(=O)N2CCC[C@H]2C(=O)N[C@@H]3[C@@H](CC4=CC=CC=C34)OCC#CC#CCO[C@@H]5CC6=CC=CC=C6[C@@H]5NC(=O)[C@@H]7CCCN7C(=O)[C@H](C8CCCCC8)NC(=O)[C@H](C)NC)NC [AZD5582] + COc1cc2c(Oc3ccc(NC(=O)C4(C(=O)Nc5ccc(F)cc5)CC4)cc3F)ccnc2cc1OCCCN1CCOCC1 [Foretinib] (partner 0.25 µM); assay: relative viability (nuclei count vs DMSO), 5 days (fraction); higher = more cells survive; conditions: first compound 0.001581 µM
Outline: (§1)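 After 5 days of treatment, lung cancer cells in 1536-well plates were fixed and stained in a single step (final 0.05% Triton X-100, 1% formaldehyde, 1 ug/ml Hoechst) and their nuclei counted on 4× images. Treatment had been applied by pin tool the day after seeding as one drug alone or as a fixed anchor-drug dose with five library-drug doses (not always all listed) in √10 steps. Relative viability is the nuclei count of treated wells divided by that of vehicle wells, and values are medians of duplicate plates.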

Cell Line | relative viability
201T | 1.09
A549 | 0.821
A-427 | 0.986
ABC-1 | 0.875
BEN | 0.634
CAL-12T | 0.821
COR-L23 | 0.963
COR-L 105 | 1.02
Calu-6 | 0.695
ChaGo-K-1 | 0.882
EBC-1 | 0.098
EKVX | 0.691
EMC-BAC-2 | 0.867
EPLC-272H | 0.0672
H3255 | 0.868
HARA | 0.858
HCC-15 | 0.74
HCC-78 | 0.537
HCC-366 | 0.947
HCC-827 | 0.936

Cell Line | relative viability
HOP-62 | 1.01
IA-LM | 0.96
LC-2-ad | 0.933
LCLC-97TM1 | 0.913
LCLC-103H | 0.699
NCI-H520 | 0.651
NCI-H661 | 0.954
NCI-H1299 | 1.05
NCI-H1563 | 0.897
NCI-H1623 | 0.831
NCI-H1650 | 0.971
NCI-H2009 | 1.22
NCI-H2023 | 0.805
NCI-H2228 | 0.843
NCI-H2342 | 1.04
SK-LU-1 | 0.794
SK-MES-1 | 0.878
SW 900 | 0.866
SW 1573 | 0.736
UMC-11 | 0.995

same assay, conditions: first compound 0.005 µM

Cell Line | relative viability
201T | 1.43
A549 | 1.13
A-427 | 0.881
ABC-1 | 1.11
BEN | 0.751
CAL-12T | 0.772
COR-L23 | 0.887
COR-L 105 | 1.32
Calu-6 | 0.523
ChaGo-K-1 | 0.9
EBC-1 | 0.101
EKVX | 0.932
EMC-BAC-2 | 0.809
H3255 | 0.796
HARA | 0.918
HCC-15 | 0.805
HCC-78 | 0.624
HCC-366 | 0.978
HCC-827 | 1.06
HOP-62 | 1.11

Cell Line | relative viability
IA-LM | 0.938
LC-2-ad | 1.16
LCLC-97TM1 | 0.94
LCLC-103H | 0.725
NCI-H520 | 0.777
NCI-H661 | 0.982
NCI-H1299 | 1.11
NCI-H1563 | 0.958
NCI-H1623 | 0.971
NCI-H1650 | 1.33
NCI-H2009 | 1.28
NCI-H2023 | 0.851
NCI-H2228 | 1
NCI-H2342 | 1.11
SK-LU-1 | 0.772
SK-MES-1 | 1.29
SW 900 | 0.666
SW 1573 | 1
UMC-11 | 1.12

same assay, conditions: first compound 0.01581 µM

Cell Line | relative viability
201T | 1.12
A549 | 0.938
A-427 | 1.09
ABC-1 | 1.05
BEN | 0.627
CAL-12T | 1.06
COR-L23 | 0.87
COR-L 105 | 0.888
Calu-6 | 0.826
ChaGo-K-1 | 0.83
EBC-1 | 0.11
EKVX | 0.553
EMC-BAC-2 | 1.02
EPLC-272H | 0.546
H3255 | 0.741
HARA | 0.904
HCC-15 | 0.959
HCC-78 | 0.548
HCC-827 | 1.04
HOP-62 | 1.06

Cell Line | relative viability
IA-LM | 1.21
LC-2-ad | 0.829
LCLC-97TM1 | 0.908
LCLC-103H | 0.681
NCI-H520 | 0.81
NCI-H661 | 1.03
NCI-H1299 | 1.04
NCI-H1563 | 0.894
NCI-H1623 | 0.917
NCI-H1650 | 1.27
NCI-H2009 | 1.19
NCI-H2023 | 0.802
NCI-H2228 | 0.788
NCI-H2342 | 1.07
SK-LU-1 | 0.843
SK-MES-1 | 0.967
SW 900 | 0.895
SW 1573 | 0.885
UMC-11 | 1.03

same assay, conditions: first compound 0.05 µM

Cell Line | relative viability
201T | 1.45
A549 | 1.14
A-427 | 0.769
ABC-1 | 0.852
BEN | 0.415
CAL-12T | 0.732
COR-L23 | 1.1
COR-L 105 | 1.16
Calu-6 | 0.437
ChaGo-K-1 | 1.1
EBC-1 | 0.107
EKVX | 0.612
EMC-BAC-2 | 0.412
EPLC-272H | 0.0632
H3255 | 0.772
HARA | 0.639
HCC-15 | 0.75
HCC-78 | 0.62
HCC-366 | 1
HCC-827 | 0.999

Cell Line | relative viability
HOP-62 | 1.05
IA-LM | 0.994
LC-2-ad | 0.923
LCLC-97TM1 | 0.958
LCLC-103H | 0.581
NCI-H520 | 0.697
NCI-H661 | 0.98
NCI-H1299 | 1.03
NCI-H1563 | 0.924
NCI-H1623 | 0.888
NCI-H1650 | 0.889
NCI-H2009 | 1.29
NCI-H2023 | 0.804
NCI-H2228 | 0.472
NCI-H2342 | 1.27
SK-LU-1 | 0.472
SK-MES-1 | 1.24
SW 900 | 0.451
SW 1573 | 0.853
UMC-11 | 1.05

compound: C[C@@H](C(=O)N[C@@H](C1CCCCC1)C(=O)N2CCC[C@H]2C(=O)N[C@@H]3[C@@H](CC4=CC=CC=C34)OCC#CC#CCO[C@@H]5CC6=CC=CC=C6[C@@H]5NC(=O)[C@@H]7CCCN7C(=O)[C@H](C8CCCCC8)NC(=O)[C@H](C)NC)NC [AZD5582] + Cc1cc(Nc2cc(N3CCN(C)CC3)nc(Sc3ccc(NC(=O)C4CC4)cc3)n2)n[nH]1 [Tozasertib] (partner 0.1 µM); assay: as above; conditions: first compound 0.001581 µM
Outline: as §1

Cell Line | relative viability
201T | 1.01
A-427 | 0.201
ABC-1 | 0.157
BEN | 0.479
CAL-12T | 0.219
COR-L23 | 0.187
COR-L 105 | 0.373
ChaGo-K-1 | 0.242
EKVX | 0.309
EMC-BAC-2 | 0.271
EPLC-272H | 0.15
H3255 | 0.553
HARA | 0.0907
HCC-15 | 0.375
HCC-44 | 0.482
HCC-78 | 1.42
HCC-366 | 0.0633
HCC-827 | 0.398

Cell Line | relative viability
HOP-62 | 0.318
LC-2-ad | 0.363
LCLC-97TM1 | 0.206
LCLC-103H | 0.377
NCI-H520 | 0.441
NCI-H522 | 0.592
NCI-H661 | 0.361
NCI-H1623 | 0.441
NCI-H1650 | 0.358
NCI-H2009 | 0.715
NCI-H2023 | 0.209
NCI-H2228 | 0.191
NCI-H2342 | 0.493
SK-LU-1 | 0.229
SK-MES-1 | 0.771
SW 900 | 0.481
SW 1573 | 0.188
UMC-11 | 0.207

same assay, conditions: first compound 0.005 µM

Cell Line | relative viability
201T | 1.07
A-427 | 0.198
ABC-1 | 0.169
BEN | 0.53
CAL-12T | 0.226
COR-L23 | 0.246
COR-L 105 | 0.404
ChaGo-K-1 | 0.231
EKVX | 0.41
EMC-BAC-2 | 0.269
H3255 | 0.609
HARA | 0.117
HCC-15 | 0.42
HCC-44 | 0.642
HCC-78 | 0.515
HCC-366 | 0.134
HCC-827 | 0.489
HOP-62 | 0.339

Cell Line | relative viability
LC-2-ad | 0.493
LCLC-97TM1 | 0.235
LCLC-103H | 0.409
NCI-H520 | 0.394
NCI-H522 | 0.491
NCI-H661 | 0.368
NCI-H1623 | 0.455
NCI-H1648 | 0.549
NCI-H1650 | 0.326
NCI-H2009 | 0.774
NCI-H2023 | 0.345
NCI-H2228 | 0.27
NCI-H2342 | 0.585
SK-LU-1 | 0.205
SK-MES-1 | 0.785
SW 900 | 0.365
SW 1573 | 0.192
UMC-11 | 0.203

same assay, conditions: first compound 0.01581 µM

Cell Line | relative viability
201T | 0.961
A-427 | 0.221
ABC-1 | 0.196
BEN | 0.577
CAL-12T | 0.282
COR-L23 | 0.257
COR-L 105 | 0.282
ChaGo-K-1 | 0.208
EKVX | 0.388
EMC-BAC-2 | 0.288
EPLC-272H | 0.292
H3255 | 0.676
HARA | 0.13
HCC-15 | 0.473
HCC-44 | 0.798
HCC-78 | 0.428
HCC-827 | 0.436
HOP-62 | 0.35

Cell Line | relative viability
LC-2-ad | 0.418
LCLC-97TM1 | 0.206
LCLC-103H | 0.455
NCI-H520 | 0.544
NCI-H522 | 0.594
NCI-H661 | 0.389
NCI-H1623 | 0.444
NCI-H1648 | 0.37
NCI-H1650 | 0.389
NCI-H2009 | 0.761
NCI-H2023 | 0.499
NCI-H2228 | 0.333
NCI-H2342 | 0.43
SK-LU-1 | 0.343
SK-MES-1 | 0.888
SW 900 | 0.722
SW 1573 | 0.164
UMC-11 | 0.196

same assay, conditions: first compound 0.05 µM

Cell Line | relative viability
201T | 1.13
A-427 | 0.167
ABC-1 | 0.166
BEN | 0.51
CAL-12T | 0.228
COR-L23 | 0.241
COR-L 105 | 0.418
ChaGo-K-1 | 0.215
EKVX | 0.371
EMC-BAC-2 | 0.187
EPLC-272H | 0.076
H3255 | 0.509
HARA | 0.0952
HCC-15 | 0.459
HCC-44 | 0.324
HCC-78 | 0.529
HCC-366 | 0.155
HCC-827 | 0.396
HOP-62 | 0.32
LC-2-ad | 0.4
LCLC-97TM1 | 0.187
LCLC-103H | 0.315
NCI-H520 | 0.51
NCI-H522 | 0.524
NCI-H661 | 0.358
NCI-H1623 | 0.432
